Tested on: C2C12 myotubes
Assay: Glucose uptake assay (3H-deoxyglucose) in C2C12 myotubes
Format: cell-based, mouse
Settings: 10 nM
Protocol: A. ULMA enhances glucose uptake in C2C12 myotubes. C2C12 myotubes in 24 well plates were treated with vehicle (DMSO) or 10 nM ULMA and glucose uptake assay was performed in presence or absence of 100 nM insulin. Data is mean±SEM of six independent experiments performed in triplicates. *p<0.05, **p<0.01, ***p<0.001 as determined by two tailed unpaired student's t-test.
C. siAdipoR1 eliminates ULMA induction of glucose uptake. C2C12 myotubes were transfected with nonsilencing siC or siAdipoR1. 72 h after transfection, cells were treated for 24 h with 10 nM ULMA and glucose uptake assay was performed. Data is mean±SEM of three independent experiments performed in triplicates. ***p<0.001 as determined by two tailed unpaired student's t-test.
Adiponectin is known to enhance glucose uptake and fatty acid oxidation in skeletal muscle and myotubes (T. Kadowaki, T. Yamauchi, N. Kubota, K. Hara, K. Ueki, K. Tobe. J Clin Invest. 116(7): 1784-1792. 2006; T. Yamauchi, J. Kamon, Y. Ito, A. Tsuchida, T. Yokomizok, S. Kita, T. Sugiyama, M. Miyagishi, K. Hara, M. Tsunodaq, K. Murakamiq, T. Ohteki, S. Uchida, S. Takekawa, H. Waki, N. H. Tsuno, Y. Shibata, Y. Terauchi, P. Froguel, K. Tobe, S. Koyasu, K. Taira, T. Kitamura, T. Shimizuk, R. Nagai, T. Kadowaki. Nature. 423(6941):762-769. 2003). Therefore the ability of ULMA to influence insulin-dependent and independent glucose uptake and fatty acid oxidation was investigated in C2C12 myotubes. […] Subsequently, the cells were lysed in 100 μl 0.5N NaOH and 5 μl lysate was used for protein concentration determination, and rest of the lysate was used to measure cellular radioactivity in a beta-counter (Beckman Coulter). […] Radioactivity that had become adsorbed onto the filter discs was then quantified by liquid scintillation counting in a beta-counter (Beckman Coulter). The cells were lysed with 200 μl 0.5N NaOH and 5 μl of the lysate was used for protein estimation using Bradford assay and the radioactivity was normalized with the protein content.

O=C1c2c(cc(O)c([C@@H]3O[C@H](CO)[C@@H](O)[C@H](O)[C@H]3O)c2O)O[C@@H](c2ccc(O)c(O)c2)[C@@H]1O [ULMA, (2S,3S)-(+)-3′,4′,5,7-tetrahydroxydihydroflavonol-6-C-β-D-glucopyranoside]
ULMA-induced glucose uptake with siAdipoR1 (not siC) (24 h, 72 h after siRNA transfection): completely eliminated | glucose uptake in absence of insulin (24 hours): enhanced | glucose uptake in presence of insulin (24 hours, 100 nM insulin 20 min): enhanced

From patent US20160193240A1, “Ulmoside-A: Useful For Prevention Or Cure Of Metabolic Diseases” (COUNCIL OF SCIENTIFIC & INDUSTRIAL RESEARCH, priority 2013, published 2016)
